According to the supplement of paper PMC10307832:

Legend:
Test in all cases: relative viability (nuclei count vs DMSO), 5 days (fraction); higher = more cells survive
[1] = compound: Cc1ccc(C(=O)Nc2ccc(CN3CCN(C)CC3)c(C(F)(F)F)c2)cc1C#Cc1cnc2cccnn12 [Ponatinib] + Cc1cc(Nc2cc(N3CCN(C)CC3)nc(Sc3ccc(NC(=O)C4CC4)cc3)n2)n[nH]1 [Tozasertib] (partner 0.1 µM)
In short: (§1)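 Values are medians from duplicate plates. Each reflects relative viability, defined as the nuclei count of treated wells over that of vehicle wells. Lung cancer cell lines in 1536-well plates were pin-tool dosed one day after seeding with one drug alone or with a fixed anchor-drug dose plus five library-drug doses (not always all listed) in √10 steps, then fixed, stained and imaged at 4× after 5 days.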

[2] = compound: Cc1ccc(C(=O)Nc2ccc(CN3CCN(C)CC3)c(C(F)(F)F)c2)cc1C#Cc1cnc2cccnn12 [Ponatinib] + Nc1nc2[nH]cc(CCc3ccc(C(=O)N[C@@H](CCC(=O)O)C(=O)O)cc3)c2c(=O)[nH]1 [Pemetrexed] (partner 0.2 µM)
In short: as §1

[3] = compound: Cc1ccc(Nc2nccc(N(C)c3ccc4c(C)n(C)nc4c3)n2)cc1S(N)(=O)=O [Pazopanib] + N=C(N)NC(=N)NCCc1ccccc1 [Phenformin] (partner 250 µM)
In short: as §1

[4] = compound: Cc1ccc(C(=O)Nc2ccc(CN3CCN(C)CC3)c(C(F)(F)F)c2)cc1C#Cc1cnc2cccnn12 [Ponatinib] + NC(=O)Nc1cc(-c2cccc(F)c2)sc1C(=O)N[C@H]1CCCNC1 [AZD7762] (partner 0.2 µM)
In short: as §1

Cell Line | relative viability ([1]; first compound 0.002 µM) | relative viability ([1]; first compound 0.006325 µM) | relative viability ([1]; first compound 0.06325 µM) | relative viability ([1]; first compound 0.2 µM) | relative viability ([2]; first compound 0.002 µM) | relative viability ([2]; first compound 0.006325 µM) | relative viability ([2]; first compound 0.06325 µM) | relative viability ([2]; first compound 0.2 µM) | relative viability ([3]; first compound 0.01 µM) | relative viability ([3]; first compound 0.03162 µM) | relative viability ([3]; first compound 0.1 µM) | relative viability ([3]; first compound 0.3162 µM) | relative viability ([3]; first compound 1 µM) | relative viability ([4]; first compound 0.002 µM) | relative viability ([4]; first compound 0.006325 µM) | relative viability ([4]; first compound 0.06325 µM) | relative viability ([4]; first compound 0.2 µM)
NCI-H661 | 0.36 | 0.345 | 0.351 | 0.368 | 0.965 | 0.968 | 0.932 | 0.87 | 0.275 | 0.281 | 0.255 | 0.272 | 0.316 | – | – | – | –
NCI-H727 | 0.607 | 0.593 | 0.531 | 0.669 | – | – | – | – | 0.455 | 0.522 | 0.57 | 0.584 | 0.682 | 0.508 | 0.575 | 0.567 | 0.576
NCI-H1563 | – | – | – | – | 0.748 | 0.798 | 0.745 | 0.641 | 0.64 | 0.664 | 0.673 | 0.722 | 0.758 | – | – | – | –
NCI-H1623 | 0.429 | 0.426 | 0.453 | 0.419 | – | – | – | – | 0.584 | 0.541 | 0.58 | 0.574 | 0.595 | – | – | – | –
NCI-H1648 | 0.464 | 0.361 | 0.577 | 0.283 | 0.574 | 0.667 | 0.63 | 0.618 | – | – | – | – | – | 0.627 | 0.64 | 0.618 | 0.567
NCI-H1650 | 0.323 | 0.411 | 0.348 | 0.304 | 0.345 | 0.334 | 0.44 | 0.36 | 0.405 | 0.559 | 0.418 | 0.537 | 0.464 | – | – | – | –
NCI-H1703 | – | – | – | – | – | – | – | – | – | – | – | – | – | 0.118 | 0.143 | 0.118 | 0.143
NCI-H1792 | – | – | – | – | 0.698 | 0.849 | 1.14 | 0.746 | – | 0.308 | – | 0.348 | 0.31 | 0.708 | 0.478 | 0.55 | 0.407
NCI-H2009 | 0.713 | 0.726 | 0.848 | 0.749 | 1.05 | 0.935 | 0.959 | 0.934 | 0.504 | 0.47 | 0.451 | 0.453 | 0.388 | – | – | – | –
NCI-H2023 | 0.381 | 0.336 | 0.246 | 0.194 | 0.17 | 0.222 | 0.235 | 0.186 | 0.421 | 0.43 | 0.398 | 0.444 | 0.434 | – | – | – | –
NCI-H2228 | 0.225 | 0.286 | 0.161 | 0.234 | 0.382 | 0.339 | 0.358 | 0.306 | 0.366 | 0.366 | 0.324 | 0.443 | 0.313 | – | – | – | –
SK-LU-1 | 0.349 | 0.419 | 0.321 | 0.218 | 0.978 | 1.07 | 0.958 | 0.84 | 0.505 | 0.627 | 0.537 | 0.571 | 0.575 | – | – | – | –
SK-MES-1 | 0.828 | 0.909 | 0.964 | 0.842 | 0.89 | 0.934 | 1.16 | 0.948 | 0.734 | 0.661 | 0.668 | 0.669 | 0.688 | – | – | – | –
SW 1573 | 0.202 | 0.16 | 0.162 | 0.176 | 0.841 | 0.802 | 0.835 | 0.838 | 0.406 | 0.36 | 0.471 | 0.437 | 0.509 | – | – | – | –
